# Experimental data published in patent US20080045584A1, “Use of Docetaxel for Treating Hepatocellular Carcinoma” (priority 1999, published 2008).
# Where two headings read alike, the source gives them in different places.
# Columns and labels:
# [1] = system: hepatocellular carcinomas; details: cited from earlier work
# [2] = system: Hep 3B cells; assay: Flow cytometric analysis of DNA content (cell cycle, sub-G0/G1); format: cell-based, human; details: for % of apoptotic (sub-G0/G1) cells: 72 hrs
# Method: (§1) Lysing buffer (0.5% Triton X-100, 0.2 μg/ml Na2EDTA.2H2O, and 1% bovine serum albumin in PBS) was added to the cell pellets which were then left on ice for 15 minutes. 100% methanol pre-cooled to −20° C. was then added to the mixture, which was then centrifuged at 300×g for 5 minutes. The supernatant was discarded and the cell pellet was washed with PBS. The washed pellet was stained with a DNA staining solution (50 μg/ml propidium iodide, and 5 kunitz/ml of RNase A) for 30 minutes at 4° C. in the dark. The DNA content of each cell was measured using a Becton Dickinson FACS Calibur flow cytometer as set out below.
# (§2) Cells (10000) were analyzed on a Becton Dickinson FACS Calibur flow cytometer using an argon-ion laser (15 mWatt) with incident beam at 488 nm. For PI exclusion assay, red fluorescence was collected through a 585 nm filter and the cell debris signals were removed by FSC-SSC gating. Data were acquired and analyzed using FACS/CELL Quest software on a Power Macintosh 7600/120 computer. Apoptotic cells and cells at specific cycle phases were determined by ModFit LT software.
# (§3) Table 1 gives figures for cell membrane permeability of the hepatoma cells, following treatment with paclitaxel and docetaxel. Table 2 details the percentage of apoptotic (sub-G0/G1) cells found after paclitaxel and docetaxel treatment.
# [3] = system: HA22T/VGH cells; assay: as above; format: cell-based, human; details: for % of apoptotic (sub-G0/G1) cells: 72 hrs
# Method: as §1, §2, §3
# [4] = system: Hep G2 cells; assay: as above; format: cell-based, human; details: Hep G2, 1 μM, 24 hours
# Method: as §1, §2, §3
# [5] = system: Hep 3B cells; assay: Propidium iodide (PI) exclusion assay, flow cytometry; format: cell-based, human
# Method: (§4) Cells were grown on 5-cm^2 flasks (CORNING) and treated with paclitaxel and docetaxel as set out above. Propidium iodide (10 μg/ml) was then added for 15 minutes incubation at 37° C. Then, medium was collected prior to harvest of the adherent cells. Both suspended and attached cells were collected and resuspended with 500 μl PBS for flow cytometry analysis as set out below. Debris signals were removed by FSC-SSC gating.
# as §2
# (§5) Data are mean±standard error of mean from duplicated sample of at least three independent experiments. Cells were treated with drugs for 24-72 hours, and membrane permeability was measured by flowcytometric analysis of propidium exclusion in viable hepatoma cells. Data are the percentage of cells with intact cell membrane as compared to control
# [6] = system: HA22T/VGH cells; assay: as above; format: cell-based, human
# Method: as §4, §2, §5
# [7] = system: Hep G2 cells; assay: as above; format: cell-based, human
# Method: as §4, §2, §5
# [8] = system: Hepa 1-6 cells; assay: Flow cytometric analysis of DNA content (cell cycle, sub-G0/G1); format: cell-based, murine; details: for % of apoptotic (sub-G0/G1) cells: Hepa 1-6, 24 hrs
# Method: as §1, §2, §3
# [9] = system: Hep G2 cells; assay: DNA fragmentation electrophoresis analysis; format: cell-based, human; details: Hep G2, 0.1 and 1 μM, 72 hours
# Method: DNA fragmentation assessment was according to the method Herrmann et al, Nucleic Acids Res., 22, 5506-5507, 1994.
# Briefly, HEP G2 cells (2×10^7) were treated for 72 hours with paclitaxel and docetaxel as set out above and centrifuged. The thus obtained cell pellets were resuspended with NP-40 lysis buffer (1% NP-40 in 20 mM EDTA, 50 mM Tris-HCl, pH 7.5). After lysis of cells for a few seconds, the supernatants were collected (5 minutes at 1600×g). The extraction was repeated with the same lysis buffer. SDS (final concentration 1%) and RNase were added (final concentration 2.5 μg/μl) to supernatants and incubated for 2 hours at 56° C. followed by digestion with proteinase K (2.5 μg/μl) for 2 hours at 37° C. Then, the mixtures were added to 10 M ammonium acetate prior to 100% ethanol precipitation for 30 minutes at −20° C. The DNA was collected by centrifugation (10 min at 12000 ×g) followed by electrophoresis on 1.5% agarose gel.
# In FIG. 3, M is a 100 base pair marker. […] Lanes 2 and 3 show mean paclitaxel (0.1 and 1 μM) treatment groups. Lanes 4 and 5 show mean docetaxel (0.1 and 1 μM) treatment groups.
# [10] = system: hepatocellular carcinoma; details: phase II clinical trial; cited from earlier work
# [11] = system: Hepa 1-6 cells; assay: Propidium iodide (PI) exclusion assay, flow cytometry; format: cell-based, murine
# Method: as §4, §2, §5
# [12] = system: Hep G2 cells; assay: Cell viability study: MTT assay; format: cell-based, human; details: Homo sapiens, HepG2, Hep G2, 10 μM, read-out: viability, % of control
# Method: The experiments detailed below involve human hepatoma cell lines Hep3B (ATCC designation HB 8064), HepG2 (ATCC designation HB 8065) and HA22T/VGH, and murine hepatoma cell line Hepa 1-6. These cells were cultured in DMEM (GIBCO, BRL) containing 10% fetal bovine serum (Hyclone), 0.01 mg/ml gentamycin and 0.1 mM non-essential amino acid. Cells were grown in a CO2 incubator at 37° C., with 5% CO2 and 95% filtered air.
# Paclitaxel was dissolved in dimethylsulfoxide (DMSO) and docetaxel was dissolved in ethanol as stock solutions. The final concentration of vehicle was less than 0.1%.
# Cells were cultured in a 96 well cell culture cluster (COSTAR) at a density of 4×10^4 cells/ml. After drug treatment for 24 hours or 72 hours, medium was discarded and replaced with an equal volume (100 μl) of fresh medium containing MTT (0.456 mg/ml; 3-[4,5-Dimethylthiazol-2-yl]2,5-diphenyl-tetrazolium bromide) and incubated for 1.5 hours at 37° C. The fresh medium was then discarded, and 100 μl DMSO was then added. Cell viability was determined by colorimetric comparison by reading OD values from a microplate reader (SPECTRA MAX250) at an absorption wavelength of 570 nm.
# Data are the mean i standard error of mean from duplicate samples of three independent experiments.
smiles,measurement,setting,value
COc1cc2c(cc1O)CC[C@@H]1[C@@H]2CC[C@]2(C)[C@@H](O)CC[C@@H]12 [2-methoxyestradiol],tolerability,"[1]; mice, 1 month of daily treatment",well tolerated
same,activity against hepatocellular carcinomas,"[1]; mouse, in vivo",active
CC(=O)O[C@H]1C(=O)[C@@]2(C)[C@H]([C@H](OC(=O)c3ccccc3)[C@]3(O)C[C@H](OC(=O)[C@H](O)[C@@H](NC(=O)c4ccccc4)c4ccccc4)C(C)=C1C3(C)C)[C@]1(OC(C)=O)CO[C@@H]1C[C@@H]2O [Paclitaxel],effect on cell cycle progression,"[2]; 0.1 μM or 1 μM, 24 hours",G2/M arrest
same,% of apoptotic (sub-G0/G1) cells,[2]; 0.1 mM (text: μM),38.37%
same,% of apoptotic (sub-G0/G1) cells,[2]; 1 mM (text: μM),47.01%
same,% of apoptotic (sub-G0/G1) cells,[3]; 0.1 mM (table head; text: μM),0%
same,% of apoptotic (sub-G0/G1) cells,"[3]; 0.1 mM (table head; text: μM), listed as paclitaxel",No significant sub-G0/G1 population
same,% of apoptotic (sub-G0/G1) cells,[3]; 1 mM (table head; text: μM),0%
same,% of apoptotic (sub-G0/G1) cells,"[3]; 1 mM (table head; text: μM), listed as paclitaxel",No significant sub-G0/G1 population
same,effect on cell cycle progression,"[3]; increasing concentrations 0.001 μM to 1 μM, 24 hours",elevated percentage of G2/M cells
same,effect on cell cycle progression (DNA histogram),[4],obvious G2/M phase arrest
same,percentage of cells with intact cell membrane as compared to control,"[5]; 24 hrs, 0.01 μM",77.35 ± 11.7%
same,percentage of cells with intact cell membrane as compared to control,"[5]; 24 hrs, 0.1 μM",63.50 ± 4.0%
same,percentage of cells with intact cell membrane as compared to control,"[5]; 24 hrs, 1 μM",52.28 ± 4.1%
same,percentage of cells with intact cell membrane as compared to control,"[5]; 72 hrs, 0.01 μM",57.00 ± 7.9%
same,percentage of cells with intact cell membrane as compared to control,"[5]; 72 hrs, 0.1 μM",8.09 ± 2.3%
same,percentage of cells with intact cell membrane as compared to control,"[5]; 72 hrs, 1 μM",1.90 ± 0.3%
same,percentage of cells with intact cell membrane as compared to control,"[6]; 24 hrs, 0.01 μM",94.08 ± 18.6%
same,percentage of cells with intact cell membrane as compared to control,"[6]; 24 hrs, 0.1 μM",40.03 ± 7.8%
same,percentage of cells with intact cell membrane as compared to control,"[6]; 24 hrs, 1 μM",34.24 ± 8.3%
same,percentage of cells with intact cell membrane as compared to control,"[6]; 72 hrs, 0.01 μM",92.58 ± 21.3%
same,percentage of cells with intact cell membrane as compared to control,"[6]; 72 hrs, 0.01 μM, listed as paclitaxel",92.58%
same,percentage of cells with intact cell membrane as compared to control,"[6]; 72 hrs, 0.1 μM",93.38 ± 32.5%
same,percentage of cells with intact cell membrane as compared to control,"[6]; 72 hrs, 1 μM",49.32 ± 8.3%
same,percentage of cells with intact cell membrane as compared to control,"[7]; Hep G2, 24 hrs, 0.01 μM",93.63 ± 1.1%
same,percentage of cells with intact cell membrane as compared to control,"[7]; Hep G2, 24 hrs, 0.1 μM",85.71 ± 6.8%
same,percentage of cells with intact cell membrane as compared to control,"[7]; Hep G2, 24 hrs, 1 μM",66.71 ± 7.2%
same,percentage of cells with intact cell membrane as compared to control,"[7]; Hep G2, 72 hrs, 0.01 μM",56.58 ± 28.7%
same,percentage of cells with intact cell membrane as compared to control,"[7]; Hep G2, 72 hrs, 0.1 μM",43.79 ± 11.7%
same,percentage of cells with intact cell membrane as compared to control,"[7]; Hep G2, 72 hrs, 1 μM",13.27 ± 4.3%
same,effect on cell cycle progression,"[8]; Hepa 1-6, 0.1 μM and 1 μM, 24 hours",G2/M phase arrest
same,cell cycle profile,"[8]; Hepa 1-6, 0.1 μM and 1 μM, 72 hours",most of the cells were dead
same,% of apoptotic (sub-G0/G1) cells,[8]; 0.01 mM (text: μM),24.02%
same,% of apoptotic (sub-G0/G1) cells,[8]; 0.1 mM (text: μM),55.64%
same,% of apoptotic (sub-G0/G1) cells,[8]; 1 mM (text: μM),64.38%
same,"DNA fragmentation (agarose gel, FIG. 3)",[9],induced DNA fragmentation
same,anti-cancer effect in HCC patients,[10],no significant anti-cancer effect
same,percentage of cells with intact cell membrane as compared to control,"[11]; Hepa 1-6, 24 hrs, 0.01 μM",93.17 ± 3.8%
same,percentage of cells with intact cell membrane as compared to control,"[11]; Hepa 1-6, 24 hrs, 0.1 μM",67.20 ± 4.4%
same,percentage of cells with intact cell membrane as compared to control,"[11]; Hepa 1-6, 24 hrs, 1 μM",62.65 ± 7.6%
same,percentage of cells with intact cell membrane as compared to control,"[11]; Hepa 1-6, 72 hrs, 0.01 μM",62.95 ± 5.6%
same,percentage of cells with intact cell membrane as compared to control,"[11]; Hepa 1-6, 72 hrs, 0.1 μM",27.79 ± 1.3%
same,percentage of cells with intact cell membrane as compared to control,"[11]; Hepa 1-6, 72 hrs, 1 μM",15.51 ± 1.0%
same,viability at 10 µM,[12]; 24 hours,61.8%
same,viability at 10 µM,[12]; 72 hours,39.5%
